Laboratory results as given in ChEMBL document CHEMBL1129154, “()-SCH 57939: synthesis and pharmacological properties of a potent, metabolically stable cholesterol absorption inhibitor” (1996).

Columns and labels:
Format in all cases: functional, Cricetulus griseus
Cricetinae gen. sp. [1] = experiment: Compound was evaluated for the percent reduction in liver cholesterol ester levels in cholesterol fed hamster model at […]
Cricetinae gen. sp. [2] = experiment: Compound was evaluated in vivo for the cholesterol lowering activity in hamster model
Cricetinae gen. sp. [3] = experiment: Compound was evaluated for the percent reduction in liver cholesterol ester levels in cholesterol fed hamster model at 0.3 mg/kg
Cricetinae gen. sp. [4] = experiment: Compound was evaluated for the percent reduction in liver cholesterol ester levels in cholesterol fed hamster model at 1 mg/kg
Cricetinae gen. sp. [5] = experiment: Compound was evaluated for the percent reduction in liver cholesterol ester levels in cholesterol fed hamster model at 10 mpk
Cricetinae gen. sp. [6] = experiment: Compound was evaluated for the percent reduction in liver cholesterol ester levels in cholesterol fed hamster model at 10 mg/kg

SMILES: O=C1[C@@H]([C@H](O)COc2ccc(F)cc2)[C@@H](c2ccc(O)cc2)N1c1ccc(F)cc1
- L/CE (Cricetinae gen. sp. [1]): 0%

SMILES: O=C1[C@H]([C@H](O)COc2ccc(F)cc2)[C@@H](c2ccc(O)cc2)N1c1ccc(F)cc1
- ED50 (Cricetinae gen. sp. [2]): 0.27 MPK
- L/CE (Cricetinae gen. sp. [3]): -70%

SMILES: COc1ccc([C@@H]2[C@@H]([C@H](O)COc3ccc(F)cc3)C(=O)N2c2ccccc2)cc1
- ED50 (Cricetinae gen. sp. [2]; Cricetinae gen. sp., read-out: ED50): 0.3 mg/kg
- L/CE (Cricetinae gen. sp. [4]; 1 mg/kg): -84%

SMILES: O=C1[C@H]([C@@H](O)COc2ccc(F)cc2)[C@H](c2ccc(O)cc2)N1c1ccc(F)cc1 (racemic)
- L/CE (Cricetinae gen. sp. [5]): -39%

SMILES: COc1ccc([C@@H]2N(c3ccccc3)C(=O)[C@]2(C)[C@@H](O)COc2ccc(F)cc2)cc1 (racemic)
- L/CE (Cricetinae gen. sp. [6]): -48%

SMILES: O=C1[C@H]([C@H](O)COc2ccc(F)cc2)[C@@H](c2ccc(O)cc2)N1c1ccc(F)cc1 (racemic)
- ED50 (Cricetinae gen. sp. [2]): 0.7 MPK
- L/CE (Cricetinae gen. sp. [4]): -38%

SMILES: COc1ccc([C@@H]2[C@@H]([C@H](O)COc3ccc(F)cc3)C(=O)N2c2ccccc2)cc1 (racemic)
- L/CE (Cricetinae gen. sp. [4]; 1 mg/kg): -57%
